# According to paper PMC7486443, “Generation of Phenothiazine with Potent Anti-TLK1 Activity for Prostate Cancer Therapy” (iScience, 2020):
# Columns and labels:
# Test in all cases: biochemical
# Design in all cases: DiscoverX KINOMEscan scanMAX competition binding panel, single concentration, percent of control; remaining binding: dose or concentration left out as unconfirmed
# Details in all cases: KINOMEscan binding, percent of control; read-out: Table S4_SCANMAX REPORT - related to Fig. 1 / Percent Control
# KIT(A829P) = KIT(A829P) (Homo sapiens, UniProt P10721, A829P)
# ROCK1 = ROCK1 (Homo sapiens, UniProt Q13464)
# IKK-epsilon = target: T1, IKK-epsilon (Homo sapiens, UniProt Q14164)
# T1 construct: gene IKBKE
# FLT4 = FLT4 (Homo sapiens, UniProt P35916)
# BRSK1 = BRSK1 (Homo sapiens, UniProt Q8TDC3)
# FLT3(K663Q) = FLT3(K663Q) (Homo sapiens, UniProt P36888, K663Q)
# TNK1 = TNK1 (Homo sapiens, UniProt Q13470)
# NIK = target: T2, NIK (Homo sapiens, UniProt Q99558)
# T2 construct: gene MAP3K14
# PHKG2 = PHKG2 (Homo sapiens, UniProt P15735)
# [1] = target: T3, ABL1(F317L)-phosphorylated (Homo sapiens, UniProt P00519, F317L)
# T3 construct: phosphorylated
# EGFR(L858R) = EGFR(L858R) (Homo sapiens, UniProt P00533, L858R)
# SRPK1 = SRPK1 (Homo sapiens, UniProt Q96SB4)
# HASPIN = HASPIN (Homo sapiens, UniProt Q8TF76)
# EGFR(G719S) = EGFR(G719S) (Homo sapiens, UniProt P00533, G719S)
# CIT = CIT (Homo sapiens, UniProt O14578)
# p38-gamma = target: T4, p38-gamma (Homo sapiens, UniProt P53778)
# T4 construct: gene MAPK12
# GRK4 = GRK4 (Homo sapiens, UniProt P32298)
# GCN2(Kin.Dom.2,S808G) = target: T5, GCN2(Kin.Dom.2,S808G) (Homo sapiens, UniProt Q9P2K8, S808G)
# T5 construct: gene EIF2AK4; Kin.Dom.2
# Sequence of EGFR(L858R) (P00533 whole entry L858R): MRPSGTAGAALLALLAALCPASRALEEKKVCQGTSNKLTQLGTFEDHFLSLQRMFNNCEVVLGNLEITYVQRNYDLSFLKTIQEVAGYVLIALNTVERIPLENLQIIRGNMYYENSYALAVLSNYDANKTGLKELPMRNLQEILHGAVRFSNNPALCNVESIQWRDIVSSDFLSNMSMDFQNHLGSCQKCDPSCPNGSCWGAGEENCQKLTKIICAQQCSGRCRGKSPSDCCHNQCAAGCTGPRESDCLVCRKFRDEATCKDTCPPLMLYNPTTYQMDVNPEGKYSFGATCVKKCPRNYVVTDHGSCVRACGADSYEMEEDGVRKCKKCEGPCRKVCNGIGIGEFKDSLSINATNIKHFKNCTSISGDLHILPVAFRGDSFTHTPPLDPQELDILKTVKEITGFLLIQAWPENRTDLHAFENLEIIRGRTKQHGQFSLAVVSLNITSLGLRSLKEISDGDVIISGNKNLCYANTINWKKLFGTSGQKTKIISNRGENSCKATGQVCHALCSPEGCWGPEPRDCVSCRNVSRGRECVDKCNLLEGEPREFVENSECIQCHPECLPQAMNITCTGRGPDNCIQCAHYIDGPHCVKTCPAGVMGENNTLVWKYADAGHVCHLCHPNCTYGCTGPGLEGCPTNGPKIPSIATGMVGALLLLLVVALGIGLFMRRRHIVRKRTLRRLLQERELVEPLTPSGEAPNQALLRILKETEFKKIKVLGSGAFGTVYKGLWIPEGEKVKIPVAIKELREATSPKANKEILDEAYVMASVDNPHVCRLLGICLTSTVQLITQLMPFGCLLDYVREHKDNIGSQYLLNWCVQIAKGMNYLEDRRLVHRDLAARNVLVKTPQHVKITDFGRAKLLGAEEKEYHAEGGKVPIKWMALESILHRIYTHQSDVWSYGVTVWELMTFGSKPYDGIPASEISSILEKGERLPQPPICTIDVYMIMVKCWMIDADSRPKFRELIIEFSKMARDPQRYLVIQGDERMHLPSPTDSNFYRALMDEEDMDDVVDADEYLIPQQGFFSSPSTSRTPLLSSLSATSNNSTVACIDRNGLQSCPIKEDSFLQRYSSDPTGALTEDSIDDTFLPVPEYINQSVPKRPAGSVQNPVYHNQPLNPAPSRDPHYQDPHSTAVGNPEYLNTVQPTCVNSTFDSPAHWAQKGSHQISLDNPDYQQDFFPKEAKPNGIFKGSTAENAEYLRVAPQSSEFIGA
# T1 sequence (Q14164 whole entry): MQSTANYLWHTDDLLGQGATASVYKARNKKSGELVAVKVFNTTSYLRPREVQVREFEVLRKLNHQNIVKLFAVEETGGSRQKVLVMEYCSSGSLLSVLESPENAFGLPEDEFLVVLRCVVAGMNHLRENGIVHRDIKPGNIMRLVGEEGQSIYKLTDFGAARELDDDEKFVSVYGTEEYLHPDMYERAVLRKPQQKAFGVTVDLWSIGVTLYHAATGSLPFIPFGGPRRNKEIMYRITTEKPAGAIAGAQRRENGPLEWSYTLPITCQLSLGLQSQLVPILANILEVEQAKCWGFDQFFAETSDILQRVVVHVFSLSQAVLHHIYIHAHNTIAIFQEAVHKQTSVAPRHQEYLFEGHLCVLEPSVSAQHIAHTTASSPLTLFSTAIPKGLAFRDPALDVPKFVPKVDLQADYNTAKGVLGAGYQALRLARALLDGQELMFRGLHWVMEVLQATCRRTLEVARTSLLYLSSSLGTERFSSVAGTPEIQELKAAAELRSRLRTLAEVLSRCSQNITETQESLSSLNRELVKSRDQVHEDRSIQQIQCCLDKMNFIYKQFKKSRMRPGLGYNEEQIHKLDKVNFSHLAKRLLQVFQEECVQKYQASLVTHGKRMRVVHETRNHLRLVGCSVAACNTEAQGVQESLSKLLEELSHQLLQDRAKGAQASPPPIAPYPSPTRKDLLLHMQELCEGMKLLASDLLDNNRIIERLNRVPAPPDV
# T4 sequence (P53778 whole entry): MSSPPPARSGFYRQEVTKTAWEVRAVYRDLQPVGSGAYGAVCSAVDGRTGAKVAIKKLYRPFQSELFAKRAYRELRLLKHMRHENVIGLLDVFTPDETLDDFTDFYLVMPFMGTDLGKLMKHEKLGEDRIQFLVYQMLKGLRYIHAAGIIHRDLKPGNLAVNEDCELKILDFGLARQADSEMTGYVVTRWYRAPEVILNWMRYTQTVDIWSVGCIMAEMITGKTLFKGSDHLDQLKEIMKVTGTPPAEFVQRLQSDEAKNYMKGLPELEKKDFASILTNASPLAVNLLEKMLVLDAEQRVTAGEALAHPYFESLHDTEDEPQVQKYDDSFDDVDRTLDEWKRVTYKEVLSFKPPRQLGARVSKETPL
# Sequence of EGFR(G719S) (P00533 whole entry G719S): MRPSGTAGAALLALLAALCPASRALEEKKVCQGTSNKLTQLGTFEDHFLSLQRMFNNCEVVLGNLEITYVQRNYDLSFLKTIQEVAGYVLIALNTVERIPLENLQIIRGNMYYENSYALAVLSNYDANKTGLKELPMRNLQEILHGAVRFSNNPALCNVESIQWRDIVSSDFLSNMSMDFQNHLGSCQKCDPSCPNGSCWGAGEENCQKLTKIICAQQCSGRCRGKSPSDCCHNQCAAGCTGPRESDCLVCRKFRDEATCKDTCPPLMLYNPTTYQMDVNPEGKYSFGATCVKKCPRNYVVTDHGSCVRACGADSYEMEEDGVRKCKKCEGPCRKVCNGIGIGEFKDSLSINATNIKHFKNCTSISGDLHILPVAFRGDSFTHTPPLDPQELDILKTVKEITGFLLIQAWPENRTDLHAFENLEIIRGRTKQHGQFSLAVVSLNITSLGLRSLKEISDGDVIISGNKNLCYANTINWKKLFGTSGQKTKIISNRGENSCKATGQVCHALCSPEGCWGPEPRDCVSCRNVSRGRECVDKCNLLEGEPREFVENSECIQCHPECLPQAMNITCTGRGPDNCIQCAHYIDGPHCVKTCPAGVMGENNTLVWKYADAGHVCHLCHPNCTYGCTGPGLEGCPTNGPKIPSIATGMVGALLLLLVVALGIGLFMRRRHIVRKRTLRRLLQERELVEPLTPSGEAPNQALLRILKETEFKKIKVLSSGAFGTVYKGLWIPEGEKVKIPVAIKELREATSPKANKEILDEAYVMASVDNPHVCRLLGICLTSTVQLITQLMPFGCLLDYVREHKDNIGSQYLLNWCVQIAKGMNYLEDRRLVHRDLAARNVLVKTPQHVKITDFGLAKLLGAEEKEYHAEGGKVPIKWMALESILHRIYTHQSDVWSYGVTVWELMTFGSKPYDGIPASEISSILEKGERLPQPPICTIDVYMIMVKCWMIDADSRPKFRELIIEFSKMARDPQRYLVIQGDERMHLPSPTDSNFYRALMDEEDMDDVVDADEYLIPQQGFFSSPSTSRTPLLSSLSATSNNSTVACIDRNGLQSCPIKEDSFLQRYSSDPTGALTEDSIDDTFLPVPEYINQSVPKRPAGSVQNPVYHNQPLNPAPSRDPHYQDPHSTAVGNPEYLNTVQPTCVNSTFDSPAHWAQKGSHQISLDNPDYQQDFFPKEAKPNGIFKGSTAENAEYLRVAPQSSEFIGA
# T3 sequence (P00519 whole entry F317L): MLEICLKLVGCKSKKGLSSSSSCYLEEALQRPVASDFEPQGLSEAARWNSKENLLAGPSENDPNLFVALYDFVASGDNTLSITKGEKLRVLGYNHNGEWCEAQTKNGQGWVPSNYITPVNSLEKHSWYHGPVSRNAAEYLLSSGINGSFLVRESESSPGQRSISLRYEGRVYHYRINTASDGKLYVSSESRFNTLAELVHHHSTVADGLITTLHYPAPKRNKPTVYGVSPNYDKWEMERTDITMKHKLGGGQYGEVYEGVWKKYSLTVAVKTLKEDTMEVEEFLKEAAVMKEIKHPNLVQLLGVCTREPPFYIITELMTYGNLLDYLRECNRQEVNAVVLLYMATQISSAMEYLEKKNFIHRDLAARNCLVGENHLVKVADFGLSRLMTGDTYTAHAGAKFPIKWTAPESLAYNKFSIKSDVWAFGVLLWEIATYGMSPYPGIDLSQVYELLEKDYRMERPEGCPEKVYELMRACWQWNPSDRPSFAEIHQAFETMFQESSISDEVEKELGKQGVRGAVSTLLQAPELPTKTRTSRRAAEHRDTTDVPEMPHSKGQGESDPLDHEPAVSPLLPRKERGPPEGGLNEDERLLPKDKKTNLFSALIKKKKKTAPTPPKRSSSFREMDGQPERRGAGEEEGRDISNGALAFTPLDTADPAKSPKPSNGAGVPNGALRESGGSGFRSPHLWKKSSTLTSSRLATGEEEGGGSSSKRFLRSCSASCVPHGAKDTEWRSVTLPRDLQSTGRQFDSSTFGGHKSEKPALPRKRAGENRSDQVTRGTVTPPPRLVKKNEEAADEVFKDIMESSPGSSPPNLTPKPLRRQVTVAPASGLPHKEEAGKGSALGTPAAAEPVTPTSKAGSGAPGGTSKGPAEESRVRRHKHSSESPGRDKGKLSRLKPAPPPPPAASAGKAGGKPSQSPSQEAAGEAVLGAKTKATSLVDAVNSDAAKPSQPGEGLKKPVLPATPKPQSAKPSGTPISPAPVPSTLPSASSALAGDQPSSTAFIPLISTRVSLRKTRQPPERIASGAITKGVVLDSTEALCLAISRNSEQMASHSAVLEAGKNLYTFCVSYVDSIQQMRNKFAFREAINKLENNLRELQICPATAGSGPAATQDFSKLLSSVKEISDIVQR
# Sequence of PHKG2 (P15735 whole entry): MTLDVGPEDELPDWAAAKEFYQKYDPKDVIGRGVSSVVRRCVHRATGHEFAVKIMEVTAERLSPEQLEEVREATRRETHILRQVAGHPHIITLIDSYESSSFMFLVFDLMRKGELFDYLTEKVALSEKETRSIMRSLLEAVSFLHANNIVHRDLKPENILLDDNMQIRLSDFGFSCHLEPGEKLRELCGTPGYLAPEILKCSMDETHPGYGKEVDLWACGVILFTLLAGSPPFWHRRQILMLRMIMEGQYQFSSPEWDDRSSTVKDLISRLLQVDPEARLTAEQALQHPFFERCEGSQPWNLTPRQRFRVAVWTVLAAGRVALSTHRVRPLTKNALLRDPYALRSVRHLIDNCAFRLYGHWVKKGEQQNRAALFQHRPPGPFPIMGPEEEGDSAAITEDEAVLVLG
structure (smiles),measurement,setting,value
c1ccc2c(c1)Sc1ccccc1N2CCN1CCOCC1 [J54],remaining binding,KIT(A829P),94%
same,remaining binding,ROCK1,100%
same,remaining binding,IKK-epsilon,75%
same,remaining binding,FLT4,96%
same,remaining binding,BRSK1,100%
same,remaining binding,FLT3(K663Q),94%
same,remaining binding,TNK1,99%
same,remaining binding,NIK,100%
same,remaining binding,PHKG2,94%
same,remaining binding,[1],99%
same,remaining binding,EGFR(L858R),92%
same,remaining binding,SRPK1,100%
same,remaining binding,HASPIN,94%
same,remaining binding,EGFR(G719S),99%
same,remaining binding,CIT,88%
same,remaining binding,p38-gamma,58%
same,remaining binding,GRK4,54%
same,remaining binding,"GCN2(Kin.Dom.2,S808G)",100%
